Test [1] in a line: Feed intake, relative weight of organs and of fat pads. The format is in vivo, mice. Conditions: for Relative weight of abdominal fat pad / Relative weight of epididymal fat pad / Relative weight of heart / Relative weight of kidney / Relative weight of liver / Relative weight of spleen: alcoholic liquid diet, week 4. On the procedure: C-1. The feed intakes of mice were recorded every day (4 mice from each group were randomly picked for recording, and an average of the 4 mice was taken). The changes in the mice body weight were recorded at the last day of every week (i.e., an average of 8 mice from each group), over a four-week period.
C-4. After “C-3” was completed, the mice were sacrificed. The weights of the mice hearts, livers, kidneys, spleens, and abdominal and epididymal fat pads were measured and recorded; the mice livers were washed with sterilized saline, and then the liver appearances were recorded by a camera. The collected organs and feces were stored at −80° C. for the following analysis (recording, sample collection and storage were conducted for all of the 8 mice from each group).
The average values of daily feed intakes of mice of each group recorded in [Preparation Examples] Besides, the weights of mice organ and fat of each group obtained from [Preparation Examples] C-4 were averaged, respectively, and then the average weights (g) were divided by the average body weights of mice in week 4 from the corresponding group to obtain the relative weights of organs and the relative weights of fat.

Test [2] has as its system LXR-α, SREBP-1c, ACC, FAS, ME. The experiment in a line: Expressions of lipid synthesis-related genes in liver (real-time PCR). In kind it is in vivo, mice. Conditions: EK100 1, 5, 10 mg/kg/day vs EtOH group, p<0.05, FIG. 4. On the procedure: C-4 was put into a 0.8 ml RNAlater containing an RNA stabilizer (Qiagen company, United States), and then the commercial kit (E.Z.N.A™ Tissue RNA kit, purchased from Omega Bio-Tek company, United States) was used to extract the mRNA therein. After that, the mRNA sample obtained therefrom was reverse transcribed to provide cDNA, and then specific primers (as shown in Table 2) were used to conduct real-time polymerase chain reaction (real-time PCR) of the cDNA to observe the expression of each gene in the mouse liver, wherein the operation steps of the real-time polymerase chain reaction were as follows: (i) 2 μl of cDNA (50 ng/μl), 5 μl of SYBR Green (Molecular Probes company, United States, Applied Biosystems/Fast SYBR® Green Master Mix), 2 μl of RNase-free water, 1 μl of forward primer, and 1 μl of reverse primer were well mixed and then centrifuged; (ii) the above sample was put into a real-time polymerase chain reaction system (Applied Biosystems/StepOne Real time PCR system) to detect the expression of each gene, wherein the expression of GAPDH was used as the […] control.
It has been known that LXR-α, SREBP-1c, ACC, FAS, ME, etc. are genes related to lipid synthesis, thus, the expressions of the above genes in mouse liver of each group were compared by the analysis method of [Preparation Examples] D-2.

Test [3] has as its system alanine aminotransferase (ALT). The experiment in a line: Activity of ALT in serum. The note with it: EK100 5 and 10 mg/kg/day (EK100_5X, EK100_10X) vs EtOH group; p<0.05; FIG. 8. The format is in vivo, mice. An excerpt: It has been known that both aspartate aminotransferase (AST) and alanine aminotransferase (ALT) are amino acid metabolic enzymes, which are widely present in the heart, liver, skeletal muscle, kidney and brain. When cells in organs are injured, AST and ALT will be released into the blood. Therefore, the activities of AST and ALT can be used as the injury markers of the above organs to detect organ injuries, wherein the higher activities of AST and ALT represent that organ injuries are more serious. For example, there is much more ALT in the liver. A higher activity of ALT in the liver would indicate a more serious injury.
To understand the effects of alcohol consumption and ergostatrien-3β-ol intake on the injury conditions of mice organs, mouse serum samples of each group provided in [Preparation Examples] C-2 (200 μl per group) were placed into automatic dry-biochemistry analyzer (Arkray, Inc., Japan, Spotechem™ EZ, SP-4430) with AST/ALT expert analytic test paper (Arkray, Inc., Japan, Spotechem™ II) to detect the activities of AST and ALT.

Test [4] has as its system TNF-α. The experiment in a line: Concentration of TNF-α in liver (ELISA). In kind it is in vivo, mice. The note with it: EK100 1, 5, 10 mg/kg/day vs EtOH group; p<0.05; FIG. 9A. An excerpt:
D-3 were taken and diluted with Calibrator Diluent RD 5-17 to ⅓ of the original concentration respectively, and then a Quantikine® Rat TNF-α or a Quantikine® Rat IL-1β commercial kit (purchased from R&D Systems company, United States) was used for the Enzyme-linked immune-sorption assay (ELISA) to measure the amounts of tumor necrosis factor-alpha (TNF-α) and interleukin-1β (IL-1β) therein. […]

In test [5] the test system is male C57BL/6 mice. The experiment in a line: Hepatitis histological activity index (HAI score). In kind it is in vivo. The note with it: EK100 1, 5, 10 mg/kg/day vs EtOH group; p<0.05; FIG. 11. An excerpt: To further observe the inflammation of mouse liver, the internationally accepted hepatitis histological activity index (HAI score) was used to categorize the hepatitis activity into the portal zone, lobuli hepatis zone, and periportal zone, which were scored with 0 to 10 points (as shown in Table 8). […] J Insur Med. 33: 110-113 (2001),” which is incorporated herein for reference.

1 compound from US20170216315A1 (priority 2016, published 2017) can be followed below.

Marks after values point to notes of the source that are not given here.

On to `CC(C)[C@@H](C)/C=C/[C@@H](C)[C@H]1CC[C@H]2C3=CCC4C[C@@H](O)CC[C@]4(C)C3=CC[C@]12C` (stereo partly drawn) [EK100], for which, in test [1] (EK100 1, 5, 10 mg/kg/day vs EtOH group, p<0.05), the “Relative weight of epididymal fat pad compared to EtOH” value is “significantly lower”. Also, in test [1] (EK100_1X: 1 mg/kg/day gavage), the “Relative weight of abdominal fat pad” value is 0.21 ± 0.03^c g/100 g of mice body weight, the “Relative weight of epididymal fat pad” value is given as 1.30 ± 0.11^c g/100 g of mice body weight, the “Relative weight of heart” value is reported as 0.53 ± 0.03^bc g/100 g of mice body weight and the “Relative weight of kidney” value was 1.33 ± 0.04^a g/100 g of mice body weight. In test [1] (EK100_1X: 1 mg/kg/day gavage), the “Relative weight of liver” value is recorded as 4.50 ± 0.14^a g/100 g of mice body weight and the “Relative weight of spleen” value is reported as 0.53 ± 0.03^a g/100 g of mice body weight. Besides, in test [1] (EK100_5X: 5 mg/kg/day gavage), the “Relative weight of abdominal fat pad” value is recorded as 0.41 ± 0.06^b g/100 g of mice body weight, the “Relative weight of epididymal fat pad” value is listed as 1.42 ± 0.14^c g/100 g of mice body weight, the “Relative weight of heart” value is listed as 0.57 ± 0.04^ab g/100 g of mice body weight and the “Relative weight of kidney” value is reported as 1.28 ± 0.05^a g/100 g of mice body weight. Further, in test [1] (EK100_5X: 5 mg/kg/day gavage), the “Relative weight of liver” value was 4.33 ± 0.20^a g/100 g of mice body weight and the “Relative weight of spleen” value is reported as 0.55 ± 0.04^a g/100 g of mice body weight. Further, in test [1] (EK100_10X: 10 mg/kg/day gavage), the “Relative weight of abdominal fat pad” value is 0.40 ± 0.04^b g/100 g of mice body weight, the “Relative weight of epididymal fat pad” value was 1.62 ± 0.07^c g/100 g of mice body weight, the “Relative weight of heart” value was 0.51 ± 0.01^bc g/100 g of mice body weight and the “Relative weight of kidney” value was 1.14 ± 0.02^b g/100 g of mice body weight. In test [1] (EK100_10X: 10 mg/kg/day gavage), the “Relative weight of liver” value is listed as 4.48 ± 0.10^a g/100 g of mice body weight and the “Relative weight of spleen” value is 0.55 ± 0.02^a g/100 g of mice body weight. In addition, in test [2], the “Expressions of lipid synthesis-related genes in liver compared to EtOH” value is on record as “significantly decreased”. Also, the “Activity of ALT in serum compared to EtOH” value in test [3] was “significantly decreased”. Moreover, the “Concentration of TNF-α in liver compared to EtOH” value in test [4] is listed as “significantly decreased”. For the same compound, in test [5], the “HAI score of periportal inflammation (necrosis) compared to EtOH” value is on record as “significantly decreased” and the “HAI score of portal inflammation compared to EtOH” value is recorded as “significantly decreased”.
